System: myostatin protein
Experiment: Column chromatography of muscle homogenate over Cystoseira canariensis fractions in place of the heparin column, eluate read by SDS-PAGE and Western blot
Format: binding, human
Conditions: fraction used as column in place of heparin, plus sepharose; crude muscle homogenate
Excerpt: The testing involved the use of column chromatography analysis of Cystoseira canariensis fractions made as described herein. In the initial testing, the method described by Se-Jin-Lee and Alexandra McPherron, “Regulation of Myostatin Activity and Muscle Growth,” Proc. Nat'l Acad. Sci., Vol. 98, No. 16, pp. 9306-9311 (2001) (FIG. 1), was followed. FIG. 2 hereof provides an illustration of the experimental apparatus used. […]
Protein sodium dodecyl sulfate-polyacrylamide gel electrophoresis (“SDS-PAGE”) was performed with gradient gel from 10 to 20% acrylamide concentrations described by Laemmli UK, “Cleavage of Structural Proteins During 15 Assembly of the Head of Bacteriophage T4,” Nature, 227: 680-685 (1970). […] The supernatant fraction of each sample was removed and used to determine protein concentration by measuring absorbance at 280 nanometers (nm). […]
After transfer, membranes were blocked in buffer containing 0.5% Tween-20, 0.2% gelatin, and 3.0% dry milk (blocking buffer) for at least 1 hour at room temperature. […] The relative concentration of myostatin protein in each sample was determined by scanning densitometry. […]

heparin
affinity to myostatin (anti-myostatin Western blot of protein eluted from the chromatography column): cross-recognized 36-37 kDa protein
